From PMC3220188 (Nature Communications, 2010)
In brackets after ≈: the same amount, converted by molar mass. Read-outs that look alike come from different tables or passages of the source. Marks after values point to notes of the source that are not given here.

How the values were obtained:
[1] = in vivo; format: in vivo, CD-1 female mice; conditions: for fAUC/MIC / fT>MIC: corrected for plasma protein binding; for T>MIC: percentage of dosing interval with plasma levels above MIC
[2] = tested on: M. tuberculosis H37Rv; format: cell-based, Mycobacterium tuberculosis; conditions: for ATP pool depleted: in the presence of glycerol, 24 h after treatment; for very rapid ATP depletion in M. tuberculosis: reference compounds, 24 h
[3] = tested on: M. tuberculosis H37Rv; assay: Metabolomic profiling by LC/MS; format: cell-based, Mycobacterium tuberculosis; conditions: 24 h after treatment, in the presence of glycerol
[4] = in vitro; format: cell-based; conditions: human
[5] = tested on: M. tuberculosis H37Rv; assay: microbe, parasite or virus in culture; format: cell-based, Mycobacterium tuberculosis
[6] = tested on: MTB pMV262-rv0577; assay: microbe, parasite or virus in culture; format: cell-based; conditions: Mycobacterium tuberculosis, read-out: MTB pMV262-rv0577 MIC50
[7] = tested on: Rv0577, Rv0911, Rv2298 and lldD2; format: binding, M. bovis BCG
[8] = female, CD-1, mouse, in vivo, po, 25 mg/kg
[9] = mouse, single oral dose 25 mg kg^−1, lung
[10] = Mycobacterium tuberculosis, H37RV
[11] = Mycobacterium tuberculosis, H37RV, read-out: MTB H37Rv MIC50
[12] = female, CD-1, mouse, in vivo, po, 100 mg/kg

Work on Cc1ccc(NC(=O)c2ccccc2)cc1Nc1nccn1-c1cc(NC2CCCC2)ncn1 [Compound 1, N-(3-(1-(6-(Cyclopentylamino)pyrimidin-4-yl)-1H-imidazol-2-ylamino)-4-methylphenyl)benzamide] yielded an AUC [1, 8] of 23400 ng·h/mL, a Cmax [1, 8] of 4000 ng/mL and a Tmax [1, 8] of 1 h. The bioavailability [1, 8] was 100%, the half-life [1, 8] was 2.5 h and the “Lung AUC/MIC” value ([1]; mouse, 25 mg kg^−1, lung) was 31.2. For the same molecule, the “Lung T>MIC” value ([1]; mouse, 25 mg kg^−1, lung) was 32, the fAUC/MIC ([1]; mouse, 25 mg kg^−1) was 8.6 and the “fT>MIC” value ([1]; mouse, 25 mg kg^−1) was 10%. For the same molecule, the “T>MIC” value ([1]; mouse, 25 mg kg^−1) was 42%, the “Lung AUC” value [1, 9] was 10.2 µg·h/g and the ATP pool depleted [2] was over 75%. For the same molecule, the “accumulation of glycerol phosphate” value [3] was “significant accumulation”, the CC50 [4] was over 50 µM and the MIC50 [5, 10] was 0.75 ± 0.32 µM (≈ 0.34 µg/mL). For the same molecule, the MIC50 [5, 11] was 0.35 ± 0.1 µM (≈ 0.159 µg/mL) and the MIC50 [6] was 2.32 ± 0.4 µM (≈ 1.05 µg/mL).
In the case of c1ccc(-c2nc3cc(Nc4nccn4-c4cc(NC5CCCC5)ncn4)ccc3[nH]2)cc1 [Compound 2, N-(1-(6-(Cyclopentylamino)pyrimidin-4-yl)-1H-imidazol-2-yl)-2-phenyl-1H-benzo[d]imidazol-5-amine], the AUC [1, 8] is reported as 10600 ng·h/mL, the Cmax [1, 8] is reported as 3800 ng/mL and the Tmax [1, 8] is reported as 0.5 h. For the same molecule, the bioavailability [1, 8] was 100%, the half-life [1, 8] was 2.2 h and the “Lung AUC/MIC” value ([1]; mouse, 25 mg kg^−1, lung) was 44.8. The “Lung T>MIC” value ([1]; mouse, 25 mg kg^−1, lung) was 54, the fAUC/MIC ([1]; mouse, 25 mg kg^−1) was 17.8 and the “fT>MIC” value ([1]; mouse, 25 mg kg^−1) was 26%. For the same molecule, the “T>MIC” value ([1]; mouse, 25 mg kg^−1) was 38%, the “Lung AUC” value [1, 9] was 10.7 µg·h/g and the ATP pool depleted [2] was over 75%. The “accumulation of glycerol phosphate” value [3] was “significant accumulation”, the CC50 [4] was over 50 µM and the MIC50 [5, 10] was 0.57 ± 0.23 µM (≈ 0.249 µg/mL). For the same molecule, the MIC50 [5, 11] was 0.34 ± 0.11 µM (≈ 0.148 µg/mL) and the MIC50 [6] was 3.53 ± 1.13 µM (≈ 1.54 µg/mL).
Work on Cc1ccc(C(=O)N2CCOCC2)cc1Nc1nccn1-c1cc(NC2CC2)ncn1 [Compound 3, (3-(1-(6-(Cyclopropylamino)pyrimidin-4-yl)-1H-imidazol-2-ylamino)-4-methylphenyl)(morpholino)methanone] yielded an AUC [1, 8] of 12400 ng·h/mL, a Cmax [1, 8] of 3000 ng/mL and a Tmax [1, 8] of 0.5 h. It also gave a bioavailability [1, 8] of 50%, a half-life [1, 8] of 2.3 h and an AUC [1, 12] of 59300 ng·h/mL. For the same molecule, the Cmax [1, 12] was 8900 ng/mL, the Tmax [1, 12] was 0.5 h and the bioavailability [1, 12] was 50%. For the same molecule, the half-life [1, 12] was 3 h, the “Lung AUC/MIC” value ([1]; mouse, 25 mg kg^−1, lung) was 1070.6 and the “Lung T>MIC” value ([1]; mouse, 25 mg kg^−1, lung) was 100. The fAUC/MIC ([1]; mouse, 25 mg kg^−1) was 113.7, the “fT>MIC” value ([1]; mouse, 25 mg kg^−1) was 47% and the “T>MIC” value ([1]; mouse, 25 mg kg^−1) was 73%. The “Lung T>MIC” value ([1]; mouse, 100 mg kg^−1, lung) was 100, the “Lung AUC/MIC” value ([1]; mouse, 100 mg kg^−1, lung, extrapolated assuming lung exposure proportional to dose) was 4654.8 ^* and the fAUC/MIC ([1]; mouse, 100 mg kg^−1) was 544.6. The “fT>MIC” value ([1]; mouse, 100 mg kg^−1) was 82%, the “T>MIC” value ([1]; mouse, 100 mg kg^−1) was 100% and the exposure versus dose ([1]; mouse, 25 and 100 mg kg^−1) was “proportional to dose”. The “Lung AUC” value [1, 9] was 17.5 µg·h/g, the CC50 [4] was over 50 µM and the MIC50 [5, 10] was 0.036 ± 0.04 µM (≈ 0.0151 µg/mL).
For Cc1ccc(NC(=O)c2cccc(NCCN)c2)cc1Nc1nccn1-c1cc(NC2CC2)ncn1 [Compound 4, 3-(2-Aminoethylamino)-N-(3-(1-(6-(cyclopropylamino)pyrimidin-4-yl)-1H-imidazol-2-ylamino)-4-methylphenyl)benzamide], the “binding of candidate proteins to sepharose-linked 4 in the presence of free 4” value [7] was “dramatically decreased” and the MIC50 [5, 10] was 0.21 ± 0.01 µM (≈ 0.102 µg/mL).
O=C(CO)COP(=O)(O)O [DHAP, dihydroxyacetone phosphate] showed an MIC50 [5] of 1200 µM.
CC[C@@H](CO)NCCN[C@@H](CC)CO [EMB, ethambutol, reference compound] gave an AUC [1, 12] of 8000 ng·h/mL, a Cmax [1, 12] of 2500 ng/mL and a Tmax [1, 12] of 0.5 h. The half-life [1, 12] was 1.8 h, the “Lung AUC” value ([1]; mouse, 100 mg kg^−1, lung) was 145 µg·h/g and the “Lung AUC/MIC” value ([1]; mouse, 100 mg kg^−1, lung) was 247. For the same molecule, the fAUC/MIC ([1]; mouse, 100 mg kg^−1) was 10, the “fT>MIC” value ([1]; mouse, 100 mg kg^−1) was 15% and the “T>MIC” value ([1]; mouse, 100 mg kg^−1) was 17%.
For NNC(=O)c1ccncc1 [Isoniazid, isoniazid, reference compound], the AUC [1, 8] was 52000 ng·h/mL, the Cmax [1, 8] was 28000 ng/mL and the “fT>MIC” value ([1]; mouse, 25 mg kg^−1) was 62%. The “T>MIC” value ([1]; mouse, 25 mg kg^−1) was 68%, the Tmax ([1]; mouse, single oral dose 25 mg kg^−1, plasma) was 0.25 h and the “activity against M. tuberculosis in the absence of glycerol in the culture medium” value (from here on “activity against M. tuberculosis”) [5] was “comparable”. It also gave an MIC50 [5, 11] of 0.42 ± 0.03 µM (≈ 0.0576 µg/mL) and an MIC50 [6] of 0.37 ± 0.05 µM (≈ 0.0507 µg/mL).
With [H]/N=C(/N)N[C@H]1[C@H](O)[C@@H](O)[C@H](O[C@@H]2O[C@@H](C)[C@](O)(C=O)[C@H]2O[C@@H]2O[C@@H](CO)[C@H](O)[C@@H](O)[C@@H]2NC)[C@@H](N/C(N)=N\[H])[C@@H]1O [Streptomycin, streptomycin, reference compound] the “very rapid ATP depletion in M. tuberculosis” value [2] was “not observed”, the “activity against M. tuberculosis” value [5] was “comparable” and the MIC50 [5, 11] was 0.18 ± 0.02 µM (≈ 0.105 µg/mL). It also gave an MIC50 [6] of 0.12 ± 0.01 µM (≈ 0.0698 µg/mL).
With O=P(O)(O)OCC(O)CO (centres unmarked) [glycerol phosphate] the MIC50 [5] was 12500 µM.
In the case of CC(=O)C=O [methylglyoxal], the MIC50 [5] is reported as 400 µM (≈ 28.8 µg/mL).
With COc1c(N2C[C@@H]3CCCN[C@@H]3C2)c(F)cc2c(=O)c(C(=O)O)cn(C3CC3)c12 [moxifloxacin, reference compound] the “very rapid ATP depletion in M. tuberculosis” value [2] was “not observed” and the “activity against M. tuberculosis” value [5] was “comparable”.
